The values that follow come from publication PMC10873626, “Acceleration of infectious disease drug discovery and development using a humanized model of drug metabolism” (Proceedings of the National Academy of Sciences of the …, 2024).

Usually CL/F stands for clearance divided by bioavailability, as obtained after extravascular dosing. For orientation: AUC(0-t) means the area under the concentration-time curve up to a stated or last time point. Higher therefore signals high exposure.

The conditions of data set [1]: microsomes.
Another data set relates to CYP. Particulars: cited from earlier work.
The next data set deals with CYP3A4. As to the kind of experiment: Hepatic CYP3A4 induction in 8HUM (Western blot). It counts as in vivo, mouse. Particulars: efavirenz 20 and 40 mg/kg QD. The procedure:
Microsomal samples were adjusted to 1 mg/mL in LDS sample buffer (Life Technologies) for loading of 10 µg total protein into each well and electrophoresis through 10% acrylamide gels for 1 h at 150 V, followed by transfer onto nitrocellulose membranes. Primary antibodies used for immunoblotting were anti-CYP3A4 (458234, BD Biosciences) and anti-GRP78 loading control (ab21685, Abcam). Pooled HLM material was the same as used in microsomal incubations. Loading control is not provided for Fig. 1B, as the comparison is between human and murine samples.
(§1) Mouse hepatic microsomes were prepared by homogenization of freshly-isolated liver in ice-cold SET buffer (0.25 M sucrose, 5 mM EDTA, and 20 mM Tris-HCL, pH 7.4) to make a 10% (w/v) homogenate solution (9 ml SET buffer/1 g liver) using a Polytron PT-MR-2100 homogenizer. Liver homogenates were centrifuged at 2000 rpm (Sorvall RTH-250 rotor) for 10 minutes at 4 °C and the supernatant then centrifuged at 12000 rpm (Sorvall SS-34 rotor) for 20 minutes at 4 °C. The resulting supernatant was centrifuged at 29130 rpm (Sorvall TFT-45.6 rotor) for 90 minutes at 4 °C and the microsomal pellets were resuspended in ice-cold SET buffer for storage at –70 °C.
(§2) Primary hepatocytes were freshly prepared from 8HUM using a modified version of Charni-Natan and Goldstein’s STAR Protocol(1). Following termination by cervical dislocation and femoral vessel cut […]

The conditions of data set [2]: mouse, in vivo.
A further data set concerns M. tuberculosis. Conditions: cited from earlier work.
For data set [3] the following is noted: hepatocytes.
The conditions of data set [4]: mouse, hepatocytes.
The conditions of data set [5]: mouse, microsomes.
Data set [6] can be described thus: in vivo. Particulars: female, 8HUM, mouse, po.
For data set [7] the following is noted: mouse, hepatocytes. This is another data set of the same source.
Data set [8] is described as follows: in vivo. Conditions: female, mouse, po.
For data set [9] the following is noted: human, in vivo; cited from earlier work.
Data set [10] is described as follows: DDI: pretomanid PK after CYP3A4 inducer pre-treatment in 8HUM. It counts as in vivo, mouse (8HUM). The method, then:
(§3) With the exception of quinidine PK, female mice were used in all experiments. Dose levels and schedules were as detailed in SI Appendix. Serial blood samples (10 µL) were taken from the tail vein at the timepoints shown, diluted into 9 volumes of Milli-Q water, and stored at −20 °C prior to bioanalysis. Samples from mice infected with T. cruzi were snap-frozen in liquid nitrogen and thawed three times before storage at −20 °C until bioanalysis. Samples from mice infected with M. tuberculosis (15 µL) were mixed with two volumes of Milli-Q and stored at −70 °C until bioanalysis. All non-compartmental analysis, modeling, and simulation of PK was carried out using Phoenix WinNonlin version 8.3.1.5014 (Certara), as described in SI Appendix.
as §1, §2
(§4) canula (Merck) and the liver perfused using 30 mL Hanks Buffered Saline Solution (HBSS, -Ca 2+ -Mg2+, no phenol red, Gibco), containing 0.5 mM EDTA and 25 mM HEPES, running at a flow rate of 3 mL/min at approximately 37 °C. Subsequently, 10 mL HBSS digestion buffer (Ca2+ & Mg2+, no phenol red, Gibco), including 25 mM HEPES and 270 µL liberase (Merck) running at a flow rate of 3 mL/min and ~37 °C was then perfused. The final perfusion step utilised 30 mL HBSS digestion buffer containing 25 mM HEPES and 20 mg collagenase (Merck) at approximately 37 °C. The liver was excised, gall bladder removed and placed in a 10 cm petri dish where it was covered with 10 mL plating medium WME containing CM4000. The liver capsule was gently agitated with a glass rod and forceps to disperse the liver cells. Cells were then poured through a 100 µm nylon strainer (Falcon, Corning, NY, USA) into a 50 mL collection tube and topped up to 50 mL with plating medium at 37 °C. All solutions were perfused using a Miniplus peristaltic pump (Gilson, Middleton, WI, USA) and run through a 20 mL Intrafix Safeset bubble trap (Braun, Melsungen, Germany) to prevent potential blocking of vessels during perfusion. […]

Data set [11] can be described thus: DDI: pretomanid PK after CYP3A4 inducer pre-treatment in WT mice. Type of data set: in vivo, mouse. The method, then:
as §3, §1, §2, §4

Data set [12] relates to M. tuberculosis H37Rv. Description: Acute M. tuberculosis infection efficacy model in 8HUM (lung CFU). Type of data set: in vivo, Mycobacterium tuberculosis.
For data set [13] the following is noted: mouse, microsomes. The source holds these as a separate data set.
The nature of data set [14]: Oral pharmacokinetics in 8HUM mice. Particulars: female, mouse, whole blood.
The conditions of data set [15]: mouse, microsomes. The source holds these as a separate data set.
A short description of data set [16]: Oral pharmacokinetics in WT mice. Conditions: female, mouse, whole blood.
The conditions of data set [17]: human, 30 min, 5 µM, pH 7.4.
Data set [18] can be described thus: in vivo. Particulars: female, C57BL/6J, mouse.
A short description of data set [19]: in vivo. Conditions: female, 8HUM, mouse.
For data set [20], the system named is M. tuberculosis H37Rv. As to the kind of experiment: Acute M. tuberculosis infection efficacy model in WT mice (lung CFU). It counts as in vivo, Mycobacterium tuberculosis. Conditions: efavirenz co-administration.
The conditions of data set [21]: human, in vivo; cited from earlier work. The source holds these as a separate data set.
[22] abbreviates: 8HUM pre-treated with efavirenz (40 mg/kg once daily for three days).
[23] abbreviates: 8HUM pre-treated with rifampicin (2 mg/kg once, 24 hr prior).
The mark [24] stands for this setting: WT pre-treated with efavirenz (40 mg/kg once daily for three days).
Where [25] appears, read: WT pre-treated with rifampicin (2 mg/kg once, 24 hr prior).

≈ marks a conversion by molar mass, not a printed value. Like-named read-outs stand apart in the source and are kept apart here.

`O=C1Nc2ccc(Cl)cc2[C@@](C#CC2CC2)(C(F)(F)F)O1` [Efavirenz]: the “CLint, Human” value in [1] is 0.5 mL/min/g liver. In addition, in the data set on CYP, the “CYP interaction: Inducer” value is listed as 3A4 and the “CYP interaction: Substrate” value is 2B6. Also, in the data set on CYP3A4, the “induction of hepatic CYP3A4” value was “approximately threefold”.

For the compound `CNCC[C@@](O)(c1cccc2ccccc12)[C@H](c1ccccc1)c1cc2cc(Br)ccc2nc1OC` [NDM-bedaquiline, N-desmethyl bedaquiline], in data set [2], the “impact of efavirenz on PK” value is reported as “little impact”. Besides, the “potency of metabolite relative to parent compound” value in the data set with M. tuberculosis is “approximately fivefold less potent”.

For the compound `CO[C@H]1/C=C/O[C@@]2(C)Oc3c(C)c(O)c4c(c3C2=O)C2=NC3(CCN(CC(C)C)CC3)NC2=C(NC(=O)/C(C)=C\C=C\[C@H](C)[C@H](O)[C@@H](C)[C@@H](O)[C@@H](C)[C@H](OC(C)=O)[C@@H]1C)C4=O` [Rifabutin], the “CLint, Human” value was determined as 1.1 mL/min/g liver in data set [1] and 1 mL/min/g liver in [3]. Moreover, the “CYP interaction: Substrate” value in the data set on CYP is reported as 3A4. Also, in data set [4], the “CLint, 8HUM” value is on record as 0.7 mL/min/g liver. The “CLint, CypC4KO” value in data set [5] amounted to 0.5 mL/min/g liver. Further, the CL/F in the data set “in vivo [6]” is 4.03 mL/min/kg; in “in vivo [8]”, 24.8 mL/min/kg. Further, in [7], the “CLint, WT” value is recorded as 0.5 mL/min/g liver.

Consider `O=[N+]([O-])c1cn2c(n1)OC[C@@H](OCc1ccc(OC(F)(F)F)cc1)C2` [Pretomanid], for which the “CLint, Human” value in data set [1] came to 0.5 mL/min/g liver. In the data set on CYP, the “CYP interaction: Substrate” value was 3A4. Further, the “decrease in AUC of pretomanid” value in data set [9] is 35%; in data set [10] (setting [22]), 54%; in data set [10] (setting [23]) it was 51%; in data set [11] (setting [24]), 65%; in [11] (setting [25]), 10%. The “decrease in Cmax of pretomanid” value in data set [9] is given as 28%; in [10] (setting [22]), 14%; in data set [10] (setting [23]), 25%; in [11] (setting [24]), 31%; in data set [11] (setting [25]), 6%. The minimum inhibitory concentration with M. tuberculosis is 0.06 µg/mL (≈ 0.167 µM). Further, the “efficacy in 8HUM compared with WT (lung CFU)” value with M. tuberculosis H37Rv [12] (M. tuberculosis infection, once a day for 8 days) is “less effective in 8HUM”. Further, the “CLint, 8HUM” value in data set [13] is 0.5 mL/min/g liver. Also, the CL/F in [14] is 2.17 mL/min/kg; in data set [16], 4.43 mL/min/kg. In addition, in data set [15], the “CLint, WT” value is listed as 0.5 mL/min/g liver.

Consider `Cc1c(O)cccc1C(=O)N[C@@H](CSc1ccccc1)[C@H](O)CN1C[C@H]2CCCC[C@H]2C[C@H]1C(=O)NC(C)(C)C` [Nelfinavir], for which the “CLint, Human” value in data set [1] is on record as 50 mL/min/g liver. The “CYP interaction: Inhibitor” value in the data set with CYP was 3A4. For the same compound, in data set [17], the metabolites detected was 18. Further, the “CLint, WT” value in data set [15] is recorded as 50 mL/min/g liver.

Turning to `COc1nc2ccc(Br)cc2cc1[C@@H](c1ccccc1)[C@@](O)(CCN(C)C)c1cccc2ccccc12` [Bedaquiline], the “CYP interaction: Substrate” value in the data set with CYP is 3A4. Besides, the values for the AUC(0-t) in “in vivo [18]” and in the data set “in vivo [19]” were 2930 ng·h/mL and 19100 ng·h/mL, respectively. In the data set on M. tuberculosis H37Rv [20], the “decrease in efficacy of bedaquiline with efavirenz” value was found to be 1.3 log CFU. Besides, in the data set on M. tuberculosis H37Rv [12] (8HUM, efavirenz co-administration), the “impact of efavirenz on efficacy of bedaquiline” value is “no impact”. In data set [21], the terminal half-life is 5.5 mo.
